Test results as given in patent publication US8314127B2, “Piperidine derivatives” (Astrazeneca AB, priority 2005, dated 2012).
One block for each molecule: values may come before it.

Legend:
CCR3 [1] = biological target: T1, CCR3 (Homo sapiens, UniProt P51677); assay: Eotaxin-2-induced shape change in eosinophils in human blood in vitro; format: cell-based; design: Human blood, collected by venous puncture into 9 mL lithium-heparin tubes; endogenous in cells; host or cells: eosinophils in human whole blood; conditions: eotaxin-2 E/[A] curve displacement, 4 min at 37° C., flow cytometry forward scatter, read-out: CCR3 pA2 (converted)
T1 sequence (P51677 1-355): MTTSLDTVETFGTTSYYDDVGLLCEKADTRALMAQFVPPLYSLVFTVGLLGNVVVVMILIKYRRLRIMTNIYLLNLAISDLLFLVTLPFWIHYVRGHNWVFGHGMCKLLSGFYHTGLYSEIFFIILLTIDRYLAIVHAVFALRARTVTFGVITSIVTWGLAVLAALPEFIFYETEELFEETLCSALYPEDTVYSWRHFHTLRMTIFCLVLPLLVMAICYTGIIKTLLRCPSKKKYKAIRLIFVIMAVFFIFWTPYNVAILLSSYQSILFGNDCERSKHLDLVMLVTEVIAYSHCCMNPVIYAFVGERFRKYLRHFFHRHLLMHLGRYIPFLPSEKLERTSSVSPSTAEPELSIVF

CCR3 [2] = biological target: T1, CCR3; assay: Compound affinity at human recombinant CCR3 receptors, radioligand competition on CHO-K1 cell membranes; format: binding; design: expressed in transfected cells; host or cells: CHO-K1; conditions: 2 nM [3H]-4-(2,4-dichloro-3-methylphenoxy)-1'-[4-(methylsulfonyl)benzoyl]-1,4'-bipiperidine, 2 h at 37° C., mean of minimum 2 experiments; for Ki: read-out: CCR3 pKi (converted)
human H1 receptor = biological target: T2, human H1 receptor (Homo sapiens, UniProt P35367); assay: Histamine H1 receptor binding, competition displacement of [3H]-pyrilamine; conditions: 1 nM [3H]-pyrilamine, membranes from recombinant CHO-K1 cells, 1 hour at room temperature; read-out: H1 pKi (converted)
T2 construct: purchased Euroscreen SA, Brussels, Belgium ES-390-M; host or cells: CHO-K1
T2 sequence (P35367 whole entry): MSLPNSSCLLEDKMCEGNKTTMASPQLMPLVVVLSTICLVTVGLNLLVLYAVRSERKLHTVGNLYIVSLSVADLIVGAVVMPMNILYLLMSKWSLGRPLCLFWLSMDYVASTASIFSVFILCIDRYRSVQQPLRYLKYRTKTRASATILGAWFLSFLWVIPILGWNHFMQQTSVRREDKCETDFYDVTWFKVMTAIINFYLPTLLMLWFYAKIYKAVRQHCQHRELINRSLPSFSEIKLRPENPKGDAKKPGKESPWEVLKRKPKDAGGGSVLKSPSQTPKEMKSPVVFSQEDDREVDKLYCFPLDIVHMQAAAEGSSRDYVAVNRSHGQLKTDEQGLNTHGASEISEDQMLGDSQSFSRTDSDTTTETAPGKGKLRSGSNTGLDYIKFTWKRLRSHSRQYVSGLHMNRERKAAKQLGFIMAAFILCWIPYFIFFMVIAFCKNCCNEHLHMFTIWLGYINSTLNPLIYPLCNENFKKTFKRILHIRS

Compound: COc1ccccc1C[C@@H](C(=O)O)N1CCC(CN2CCC(Oc3ccc(Cl)c(Cl)c3C)CC2)CC1 [Example 2, (2S)-2-[4-[[4-(3,4-dichloro-2-methyl-phenoxy)-1-piperidyl]methyl]-1-piperidyl]-3-(2-methoxyphenyl)-propanoic acid]
Kb (CCR3 [1]): 20 nM | Ki (CCR3 [2]): 0.631 nM

Compound: Cc1c(OC2CCN(CC3CCN([C@@H](Cc4ccc(C#N)cc4)C(=O)O)CC3)CC2)ccc(Cl)c1Cl [Example 3, (2S)-3-(4-cyanophenyl)-2-[4-[[4-(3,4-dichloro-2-methyl-phenoxy)-1-piperidyl]methyl]-1-piperidyl]-propanoic acid]
Kb (CCR3 [1]): 20 nM | Ki (CCR3 [2]): 0.501 nM | Ki (human H1 receptor): 31.6 nM

Compound: CCc1c(OC2CCN(CC3CCN([C@@H](Cc4ccccc4)C(=O)O)CC3)CC2)ccc(Cl)c1Cl [Example 13, (2S)-2-[4-[[4-(3,4-dichloro-2-ethyl-phenoxy)-1-piperidyl]methyl]-1-piperidyl]-3-phenylpropanoic acid]
Kb (CCR3 [1]): 200 nM | Ki (CCR3 [2]): 1.26 nM | Ki (human H1 receptor): 100 nM

Compound: CCc1c(OC2CCN(CC3CCN([C@@H](Cc4ccc(F)cc4)C(=O)O)CC3)CC2)ccc(Cl)c1Cl [Example 14, (2S)-2-[4-[[4-(3,4-dichloro-2-ethyl-phenoxy)-1-piperidyl]methyl]-1-piperidyl]-3-(4-fluorophenyl)-propanoic acid]
Kb (CCR3 [1]): 200 nM | Ki (CCR3 [2]): 0.501 nM

CCR3 pKi (CCR3 [2]): 8.2
Compound: Cc1c(OC2CCN(CC3CCN([C@@H](Cc4ccccc4)C(=O)O)CC3)CC2)ccc(C#N)c1Cl [Example 15, (22S)-2-(4-{[4-(3-chloro-4-cyano-2-methylphenoxy)-piperidin-1-yl]methyl}piperidin-1-yl)-3-phenylpropanoic acid]
